Read-outs that look alike come from different tables or passages of the source.
Columns and labels:
NADPH oxidase (NOX) [1] = experiment: NOX-dependent superoxide production, lucigenin chemiluminescence in heart homogenates; type: biochemical, mouse; settings: NOS1−/− cardiac homogenates
Protocol: NOX-dependent superoxide production: NADPH-dependent superoxide production was measured in heart homogenates using lucigenin (5 μmol/L)-enhanced chemiluminescence (β-NADPH 300 μmol/L; room temperature) on a microplate luminometer (Veritas, Turner Biosystems, Sunnyvale, Calif.). Briefly, proteins were diluted in modified Krebs-HEPES buffer. NADPH and lucigenin were added to wells just before reading. Chemiluminescence readings were expressed as integrated light units. […] Experiments also were performed in the presence of the flavoprotein inhibitor diphenyleneiodonium (DPI, 0.01 mmol/L).

NADPH oxidase (NOX) [2] = experiment: NADPH oxidase dependent ONOO− production, APF fluorescence in heart homogenates; type: biochemical, mouse; settings: NOS1−/− heart extracts, NADPH 0.3 mmol/L; read-out: IC50, NOX-dependent peroxynitrite production
Protocol: NADPH oxidase dependent and XOR dependent ONOO— production: NADPH oxidase and XOR dependent ONOO— production was measured in heart homogenates using p-aminophenyl fluorescein (APF) as indicator. Proteins were diluted in modified Krebs-HEPES buffer and incubated with NADPH or xanthine for 30 minutes at 37° C. APF was added just before the fluorescence readings, measuring at 515 nm with excitation at 490 nm.

[3] = target: T1, xanthine oxidoreductase (XOR) (Mus musculus, UniProt Q00519); experiment: Xanthine oxidoreductase activity, Amplex red superoxide production in heart homogenates; type: biochemical
T1 construct: NOS 1^−/− cardiac homogenates as source of the enzyme; from tissue; host or cells: heart homogenate of NOS1-/- mice, passed through Sephadex G-25
T1 sequence (Q00519 whole entry): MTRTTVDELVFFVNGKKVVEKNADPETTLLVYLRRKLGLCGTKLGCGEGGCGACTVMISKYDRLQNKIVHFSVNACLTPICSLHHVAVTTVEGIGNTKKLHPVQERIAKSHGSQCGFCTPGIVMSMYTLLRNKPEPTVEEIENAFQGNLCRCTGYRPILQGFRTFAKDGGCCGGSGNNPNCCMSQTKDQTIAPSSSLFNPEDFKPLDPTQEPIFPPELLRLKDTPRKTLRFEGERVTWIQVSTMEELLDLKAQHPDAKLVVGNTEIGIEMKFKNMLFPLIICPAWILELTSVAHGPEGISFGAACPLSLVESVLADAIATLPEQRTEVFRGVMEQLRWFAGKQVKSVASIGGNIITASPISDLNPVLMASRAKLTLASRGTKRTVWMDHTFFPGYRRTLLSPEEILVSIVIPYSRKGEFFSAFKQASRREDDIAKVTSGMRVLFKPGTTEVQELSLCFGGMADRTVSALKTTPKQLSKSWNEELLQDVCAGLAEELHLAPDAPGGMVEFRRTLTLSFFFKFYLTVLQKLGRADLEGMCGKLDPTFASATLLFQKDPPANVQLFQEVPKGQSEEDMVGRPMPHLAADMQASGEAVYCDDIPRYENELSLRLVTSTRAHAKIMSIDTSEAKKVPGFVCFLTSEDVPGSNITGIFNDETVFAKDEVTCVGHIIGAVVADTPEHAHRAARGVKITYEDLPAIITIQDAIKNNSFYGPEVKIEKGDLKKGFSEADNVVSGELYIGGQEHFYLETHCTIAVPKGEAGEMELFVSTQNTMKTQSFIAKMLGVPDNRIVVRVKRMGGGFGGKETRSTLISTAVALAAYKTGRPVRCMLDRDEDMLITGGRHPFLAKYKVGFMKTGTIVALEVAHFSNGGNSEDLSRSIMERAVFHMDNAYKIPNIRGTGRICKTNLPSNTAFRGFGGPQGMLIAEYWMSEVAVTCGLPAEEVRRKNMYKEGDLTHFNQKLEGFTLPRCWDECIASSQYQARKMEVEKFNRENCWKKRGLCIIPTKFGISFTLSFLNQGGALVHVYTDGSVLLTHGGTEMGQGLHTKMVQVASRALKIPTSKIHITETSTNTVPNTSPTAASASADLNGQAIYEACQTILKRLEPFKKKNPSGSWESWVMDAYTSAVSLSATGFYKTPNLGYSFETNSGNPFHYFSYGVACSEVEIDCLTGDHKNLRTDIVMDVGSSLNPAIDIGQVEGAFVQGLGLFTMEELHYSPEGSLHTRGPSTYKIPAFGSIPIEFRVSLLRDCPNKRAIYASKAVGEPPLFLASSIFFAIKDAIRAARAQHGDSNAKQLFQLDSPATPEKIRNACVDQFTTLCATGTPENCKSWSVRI
Protocol: (§1) Xanthine Oxidoreductase activity: XOR activity was investigated by measuring uric acid and superoxide production. Heart homogenates were passed through a Sephadex G-25 column (GE Healthcare, Piscataway, N.J.) and XOR-dependent superoxide production was measured using Amplex red (Molecular Probes, Eugene, Oreg.) (0.05 mmol/L), horseradish peroxidase (HRP, 0.2 U/ml) and xanthine (0.1 mmol/L). In the assay, xanthine oxidase catalyzes the oxidation of xanthine to uric acid and superoxide. Superoxide spontaneously degrades to hydrogen peroxide (H2O2), and this, in the presence of HRP, reacts with Amplex Red to generate resurofin. Resurofin fluorescence was measured at 590 nm with excitation at 530-560 nm In parallel, the processed effluent was assessed spectrophotometrically at 295 nm for uric acid. The reaction mixture in 50 mM phosphate buffer, pH 7.4, contained 50 μl of the effluent, EDTA-Na2 (1 mmol/L), xanthine (0.2 mmol/L). […] The obtained values were plotted against a standard curve with known concentrations of XOR.

[4] = target: T1, xanthine oxidoreductase (XOR); experiment: Xanthine oxidoreductase activity, uric acid production in heart homogenates; type: biochemical; settings: NOS1−/− cardiac homogenates, xanthine 0.2 mmol/L
Protocol: as §1

NOS1−/− cardiomyocytes = experiment: Sarcoplasmic reticulum Ca2+ stores by rapid caffeine infusion; settings: for Sarcoplasmic reticulum Ca2+ content (% [Ca2+]i, percent change from baseline): NOS1−/− cardiomyocytes, 4 Hz, caffeine 10 mmol/L, untreated NOS1−/− 13.7±3.1%; for Ca2+ reserves: NOS1−/− myocytes at 4 Hz
Protocol: In order to assess calcium stores, caffeine (10 mmol/L) was rapidly infused after a 10 second pause following steady-state pacing at 1 and 4 Hz. In order to calculate the [Ca^2+]i of caffeine pulse was normalized as follows:
([Ca^2+]i at caffeine−[Ca^2+]i at pacing)/[Ca^2+]i at pacing×100.
Experiments were then repeated after incubating the cells with previously mentioned drugs.

NOS1−/− myocytes [5] = experiment: Assessment of SR Ca2+ leakage with tetracaine, Example 2; type: cell-based, mouse
Protocol: Assessment of SR Ca^2+ leakage: Calcium leakage was assessed as described by Shannon et al (Shannon T. R. et al. Circ Res 2002; 91:594-600). Ventricular myocytes were paced by field stimulation at the different frequencies in normal Tyrode until cellular Ca^2+ transients reached a steady state. After the last pulse, the superfusing solution was rapidly switched to 0Na^+-0Ca^2+(Na^+ replaced by Li^+) Tyrode with or without 1 mmol/L tetracaine. In the control condition, [Ca^2+]i was monitored while 0Na^+-0Ca^2+ Tyrode buffer was applied at least 40 seconds, rapid pulse of 10 mm/L caffeine was added to cause SR Ca^2+ release. The difference between the basal and the peak total cytosolic [Ca^2+]i in the presence of caffeine is, therefore, [Ca^2+]τ. In the test condition, 0Na^+0Ca^2+ Tyrode was applied with tetracaine. In this condition, the leakage is blocked and the difference in [Ca^2+]τ between tetracaine and control condition is diastolic leakage. To calculate [Ca^2+]τ in the SR, the total SR volume was considered 3% of the cell volume and the cytosol volume, 65% of the cell volume.

wt myocytes = experiment: Force-frequency response: sarcomere shortening and calcium transients; type: cell-based, mouse; settings: hydralazine 0.01, nitroglycerin 0.01, DETA/NO 0.1 mmol/L, 5 minutes incubation
Protocol: (§2) Isolated Myocytes Preparation: Cardiac myocytes were isolated and prepared from mouse hearts as described in detail by Khan et al. (Khan S. A. et al. Circ Res 2003;92:1322-1329). Sarcomere length (SL) and [Ca^2+]i were measured simultaneously in myocytes stimulated at 1, 2, 4, 6 and 8 Hz. […] All experiments were conducted at 37° C. SL was recorded with an IonOptix iCCD camera. Change in average SL was determined by Fast Fourier Transform analysis of the Z-line density trace to the frequency domain, and SL Shortening was calculated as follows: (diastolic SL—systolic SL)/diastolic SL. Intracellular calcium, was measured using the Ca^2+-sensitive dye Fura-2 and a dual-excitation spectrofluorometer (IonOptix), alternately excited with a xenon lamp at wavelengths of 365 and 380 nm The emission fluorescence was reflected through a barrier filter (510±15 nm) to a photomultiplier tube. The Fura-2 fluorescence ratio, i.e., the ratio of the photon live count detected by the excitation at 365 nm compared with 380 nm, represents [Ca^2]i.

NOS1−/− myocytes [6] = experiment: as above; type: cell-based, mouse; settings: hydralazine 0.01, nitroglycerin 0.01, DETA/NO 0.1 mmol/L, 5 minutes incubation
Protocol: as §2

NOS1−/− myocytes [7] = experiment: SR Ca2+ leakage protocol, Example 1 (0Na/0Ca buffer, caffeine); type: cell-based, mouse
Protocol: The hearts were cannulated and perfused trough the aorta with Ca^2+-free bicarbonate buffer containing (in mM) 120 NaCl, 5.4 KCl, 1.2 MgSO4, 1.2 NaH2PO4, 5.6 glucose, 20 NaHCO3, 10 2,3-butanedione monoxime (BDM; Sigma), and 5 taurine (Sigma), gassed with 95% O2-5% CO2, followed by enzymatic digestion with collagenase type 2 (1 mg/ml; Worthington) and protease type XIV (0.1 mg/ml; Sigma). Ventricular myocytes were obtained by mechanical disruption of digested hearts, filtration, centrifugation, and resuspension in a Tyrode solution containing (in mM) 0.125 mM CaCl2 144 NaCl, 1 MgCl2, 10 HEPES, 5.6 Glucose, 1.2 NaHPO4, 5 KCl, adjusted to a pH of 7.4 with NaOH. Then, the Ca^2+ content of the buffer was increased in steps until reaching 1.8 mM.
Myocytes were incubated with 5 μmol/L fura-2/AM (Molecular Probes, Eugene, Oreg.) then transferred to a Lucite chamber on the stage of an inverted microscope (Nikon TE 200), continuously superfused with Tyrode solution. Sarcomere length (SL) and Ca^2+ transients ([Ca^2+]i) were measured in myocytes stimulated at 1, 2, 4, 6 and 8 Hz. All experiments were conducted at 37° C.
Calcium leakage was assessed as described by Shannon et al (Shannon, T. R. et al., 2002. Circ. Res. 91:594-600). Ventricular myocytes were paced by field stimulation at the different frequencies in normal Tyrode until cellular Ca^2+ transients reached a steady state. After the last pulse, the superfusing solution was rapidly switched to 0Na^+-0Ca^2+ (Na^+ replaced by Li^+) Tyrode with or without 1 mmol/L tetracaine. In the control condition, [Ca^2+]i was monitored while 0Na^+-0Ca^2+ Tyrode buffer was applied at least 40 seconds, then a rapid pulse of 10 mm/L caffeine was added to cause SR Ca^2+ release. The difference between the basal and the peak total cytosolic [Ca^2+]i in the presence of caffeine is therefore [Ca^2+]T. In the test condition, 0Na+0Ca^2+ Tyrode was applied with tetracaine. In this condition, the leakage is blocked and the difference in [Ca^2+]T between tetracaine and control condition corresponds to diastolic leakage. […]

[8] = 100 μM, paced at 4 Hz, NOS1−/− myocytes

Compound | concentration that decreased NOX activity / NOX dependent superoxide production (NADPH oxidase (NOX) [1]) | IC50 (NADPH oxidase (NOX) [1]; NADPH 0.3 mmol/L) | IC50 (NADPH oxidase (NOX) [2]) | IC50 [3] | XOR enzyme activity (uric acid conversion) [4] | Sarcoplasmic reticulum Ca2+ content (% [Ca2+]i, percent change from baseline) (NOS1−/− cardiomyocytes) | Ca2+ reserves (NOS1−/− cardiomyocytes) | Diastolic Ca2+ leak, drug alone (NOS1−/− myocytes [5]; nitroglycerin 10 μmol/L, hydralazine 100 μmol/L) | sarcomere shortening or calcium transients (wt myocytes) | suppressed SL and [Ca2+]i responses (NOS1−/− myocytes [6]) | IC50 ([3]; NOS1−/− cardiac homogenates, xanthine 0.1 mmol/L, read-out: IC50, Amplex red XOR activity) | SR content (NOS1−/− myocytes [7]; [8]) | diastolic Ca2+ waves (NOS1−/− myocytes [7]; [8]) | spontaneous Ca2+ transients (waves) during 0Na+/0Ca2+ treatment (NOS1−/− myocytes [7]; NOS1−/− and NOS3/NOS1−/− myocytes, 1 mmol/L tetracaine) | spontaneous Ca2+ waves (NOS1−/− myocytes [5]; tetracaine 1 mmol/L)
O=[N+]([O-])OCC(CO[N+](=O)[O-])O[N+](=O)[O-] [nitroglycerin] | > 0.01 mmol/L | 13 µM | 1300 ± 400 µM | 1000 ± 400 µM | did display XOR-inhibitory activity | 42.8±6.5% | increased | not abolished | no effect | restored towards levels similar to WT |  |  |  |  | 
NNc1nncc2ccccc12 [hydralazine] |  |  |  |  |  | 49.2±16.3% |  |  | no effect |  | 700 ± 300 µM |  |  |  | 
NCCN(CCN)/[N+]([O-])=N/O [DETA/NO, diethylenetriamine/nitric oxide adduct] |  |  |  |  |  | 42.8±6.5% | increased |  | no effect | restored towards levels similar to WT |  | increased | did not reduce |  | 
CCCCNc1ccc(C(=O)OCCN(C)C)cc1 [tetracaine] |  |  |  |  |  |  |  |  |  |  |  |  |  | abolished | abolished

Source: US20100316622A1, “DIAGNOSIS AND TREATMENT OF CARDIAC DISORDERS” (UNIVERSITY OF MIAMI, priority 2007, published 2010)
